These results are taken from patent US20160296722A1, “METHOD OF TREATING DEPRESSION” (Korea Bio Medical Science Institute, priority 2015, published 2016).

The test system of one assay is DA. The assay is described as follows: DA level in brain after FST (DA ELISA kit). Format: in vivo, mice. To be noted: mouse brain after FST, 10 mg/kg orally once daily for 3 weeks, versus untreated control group, p<0.05. As for the experimental part:
Supernatants were collected and stored at −70° C.

The subject of another assay is ICR mice. The assay is described as follows: Forced swimming test (FST), immobility time. Format: in vivo. The conditions noted are these: male ICR mice, mean±SEM.
Another assay has as its system BDNF. The assay is described as follows: BDNF expression in brain, Western blot. It is filed as in vivo, mice. The conditions noted are these: mouse brain after FST, 10 mg/kg orally once daily for 3 weeks, versus untreated control group.
Another assay concerns pERK. The assay is described as follows: ERK phosphorylation in brain, Western blot. Format: in vivo, mice. To be noted: mouse brain after FST, 10 mg/kg orally once daily for 3 weeks, p<0.05.

Method for BDNF: (§1) Immediately after the FST, mice were sacrificed, brains were rapidly removed, and frozen in liquid nitrogen. Samples were dissected and homogenized in ice-cold buffer supplemented with 0.2 mM DTT, 0.5 mM sodium vanadate, and protease inhibitors. NaCl was then added to a final concentration of 0.45 M, and homogenates were centrifuged at 15,000×g for 30 min. Supernatants were collected and stored at −70° C. Samples were subjected to Western blot analysis for ERK, phosphorylated-ERK (PERK), BDNF, and GAPDH. Supernatant samples obtained as described above were heated at 95° C. for 5min and briefly cooled on ice. After centrifugation, 50 μg aliquots were resolved by 12% SDS-polyacrylamide gel electrophoresis. Proteins were then transferred to nitrocellulose membranes, which were blocked for 2 h with phosphate-buffered saline (PBS) containing Tween-20 (PBST) containing 6% bovine serum albumin. Membranes were incubated overnight at 4° C. with primary antibodies diluted 1:500 with PBST, and washed nine times for 10 min with PBST. For protein detection, blots were incubated with secondary antibodies conjugated peroxidase (1:5000) for 2 h. Finally, protein bands were visualized using an enhanced chemiluminescence kit (GE Healthcare, Piscataway, N.J., USA) according to the manufacturer's instructions.
Method for ICR mice: Male ICR mice (3 weeks old) weighing 10-12 g were purchased from the Dae-Han Experimental Animal Center (Daejeon, Republic of Korea), and subsequently maintained at the College of Korean Medicine, Kyung Hee University. Animals were housed 5-10% in as laminar air-flow room maintained at a temperature of 22±1° C. and a relative humidity of 55±10% under a 12:12 L/D cycle light (on at 7:00 h) throughout the study. Food and water were provided ad libitum. All manipulations were carried out between 9:00 and 16:00 h and no animal was used more than once.
Mice were exposed to JDS music daily for 3 weeks. All experiments were carried out in a quite environment other sounds.
After measuring immobility times, 10 mice were allocated to each of the five study groups in an immobility time-matched manner. […] The FST was performed as the end of the 3 weeks administration period. During the 6 min FST, immobility times were measured as described by Porsolt et al. (1977). The FST apparatus consisted of two Plexiglas cylinders (height: 25 cm, diameter: 10 cm) placed side by side in a Makrolon cage filled with water at 23-25° C. […] Total duration of immobility, during the 4 min period from 2 to 6 min was recorded. […]
Method for pERK: as §1

For `CNCCC(Oc1ccc(C(F)(F)F)cc1)c1ccccc1` (centres unmarked) [fluoxetine, Fluoxetine], in the assay with DA, the “DA level in brain” value is recorded as “significantly higher than in the untreated control group”. Besides, in the assay with ICR mice (10 mg/kg orally once daily for 3 weeks, untreated control 199.3±11.8 s, p<0.05), the “Mean immobility time after the 3-week treatment period” value was 60.4 ± 14.3 s. Besides, the “Mean baseline immobility time” value in the assay with ICR mice (baseline (0 day), before treatment) is 94.2 ± 23.9 s. Further, in the assay with BDNF, the BDNF level entry is reported as “significantly increased BDNF levels”. Further, the pERK level result with pERK is recorded as “significantly elevated pERK levels”.
